Test [1] concerns Mycobacterium tuberculosis. Description: Cornell M. t heat shock assay. It is filed as functional, organism-based. The note with it: for IC50: Mycobacterium tuberculosis.
The nature of test [2]: microbe, parasite or virus in culture. The note with it: Mycobacterium tuberculosis, 96 h, read-out: pIC50 (converted).
A short description of test [3]: microbe, parasite or virus in culture. The note with it: Mycobacterium tuberculosis, 72 h, read-out: pIC50 (converted).
Test [4] concerns Plasmodium falciparum. Description: Calibr Malaria Delayed Death Assay SOP. It is filed as functional, organism-based. The note with it: for IC50: Plasmodium falciparum.
Test [5] has as its target ClpP1P2 (Mycobacterium tuberculosis (strain ATCC 25618 / H37Rv), UniProt P9WPC3+P9WPC5). Description: in vitro assay to detect presence of AMC directly proportional to the activity of ClpP1P2. GHDDI collaboration. It is filed as functional.

SMILES strings stand for the structures. “And” between values parts separate entries of the source, which are not always exact repeats. Equal values may be shown once.

By pIC50 is commonly meant −log10 of the IC50, conventionally taken in molar units. Lower therefore signals a large IC50.

Chain of ClpP1P2 (P9WPC5 whole entry): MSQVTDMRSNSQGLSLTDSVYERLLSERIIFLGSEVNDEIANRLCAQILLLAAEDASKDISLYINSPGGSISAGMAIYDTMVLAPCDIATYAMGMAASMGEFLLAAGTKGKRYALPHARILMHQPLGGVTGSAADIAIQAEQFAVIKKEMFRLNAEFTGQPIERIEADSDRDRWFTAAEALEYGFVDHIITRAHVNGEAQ
Chain of ClpP1P2 (P9WPC3 whole entry): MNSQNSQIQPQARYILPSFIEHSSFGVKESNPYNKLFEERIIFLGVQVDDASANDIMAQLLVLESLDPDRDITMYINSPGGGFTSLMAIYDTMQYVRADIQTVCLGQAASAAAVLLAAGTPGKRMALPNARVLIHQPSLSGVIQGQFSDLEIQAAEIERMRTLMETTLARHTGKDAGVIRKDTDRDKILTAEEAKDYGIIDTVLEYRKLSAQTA

`CCn1ccc(-c2cc(NCCCOc3cccc(C)c3)nc(C)n2)n1` had a pIC50 in test [1] of 4.417. For the same compound, the figures for the IC50 in test [1], in test [2] and in test [3] were 55.1 µM, 18.9 µM and 30.2 µM, respectively.

Take `Cc1cc2c(cc1Cl)C=CC1(CCN(CC(=O)NC3CCCC3)CC1)O2`: the IC50 in test [1] is 49.9 µM; in test [2], above 50.1 µM; in test [3], 45.4 µM.

Turning to `c1cnc(N2CCC(c3csc(Nc4cnccn4)n3)CC2)nc1`, the IC50 in test [4] is 0.0108 µM; in test [1], above 100 µM.

`O[C@@H]1CN(CC2=Cc3cc(Cl)ccc3OC2)CC[C@H]1N1CCCCCC1`: the IC50 in test [1] was 52.7 µM; in test [2] it was 46.9 µM; in test [3], 49.3 µM.

Compound `Cl.Clc1cccc(N[C@H]2CCCN[C@H]2Cc2ccccc2)c1` came in with a pIC50 in test [4] of 6.045. Besides, the IC50 is 0.981 µM in test [4], 7.22 µM in test [1], 17 µM in test [2] and 8.59 µM in test [3].

Turning to `CC(C)Cc1ncc2c(n1)CN(c1nccc(NC(C)C)n1)C2`, the IC50 is 34.5 µM in test [1], 15.5 µM in test [2] and 23.9 µM in test [3].

In test [4], `CN1CCCCC1c1ncc2c(n1)CCN(Cc1ccc(Cl)c(F)c1)C2` (stereo unspecified) showed a pIC50 of 5.794 and an IC50 of 1.55 µM. In test [1], this compound showed a pIC50 of 4.295 and an IC50 of 50.6 µM.

As to `CCSCCNc1cc(C)nc2c(C)c(C)nn12`, the IC50 is 23.5 µM in test [1], 7.02 µM in test [2] and 5.48 µM in test [3].

As to `Cc1ccc(S(=O)(=O)NCCc2ccoc2)s1`, the IC50 in test [1] is 31 µM; in test [2] it was 46.2 µM; in test [3] it was 38 µM.

For the compound `Cc1cccc(CNC(Cc2ccsc2)c2nc(C)c(C)s2)n1.Cl` (stereo unspecified), the pIC50 in test [1] stood at 5.24. In addition, the IC50 in test [1] is 8.25 µM; in test [5], above 100 µM; in test [2], above 50.1 µM; in test [3], 31.7 µM.

In the case of `Fc1ccccc1CN1CCC[C@@H](Cn2nnc(-c3cccs3)n2)C1`, the IC50 in test [1] was above 100 µM; in test [2] it was 33.3 µM; in test [3], 16.9 µM.

For `Cc1cc(C(=O)N2CCN(c3nc4c(C(C)C)cccc4s3)CC2)no1`, the IC50 in test [1] is 57.9 µM; in test [2], 42.6 µM; in test [3] it was above 50.1 µM.

Regarding `Nc1cc(N2CCOCC(Cc3ccc4[nH]ccc4c3)C2)ncn1` (stereo unspecified), the negative-log IC50 (pIC50) in test [1] was < 4 and < 4.31. Moreover, the results for the IC50 in test [2] and in test [3] were 13.4 µM and 28.8 µM, respectively.

Consider `CN1CCCCC1c1ncc2c(n1)CCN(CCCc1ccccc1)C2` (stereo unspecified), for which the pIC50 in test [1] amounted to 4.46. In addition, the figures for the IC50 in test [1], in test [2] and in test [3] were 39.4 µM, 41.2 µM and 44.5 µM, respectively.

`CN(C)[C@@H]1CN(Cc2ccccc2O)C[C@H]1c1cn(C)c2ccccc12`: the IC50 was 28.3 µM in test [1] and above 100 µM in test [5].

Compound `COc1cccc(OC)c1CNC(Cc1ccsc1)c1ccc(C)cn1` (stereo unspecified) yielded a pIC50 in test [4] of 5.969. Moreover, the IC50 in test [4] is 1.09 µM; in test [1], 27 µM; in test [2], 12.5 µM; in test [3] it was 16.4 µM.

As to `CC(C)C[C@H](N)COc1cccc(F)c1Oc1ccc(Cl)cc1`, the IC50 was 20.5 µM in test [1], 21 µM in test [2] and 17.6 µM in test [3].

With `COc1ccc(CNC(Cc2ccsc2)c2ccc(C)cn2)c(OC)c1` (stereo unspecified), the IC50 is 17.9 µM in test [1], above 50.1 µM in test [2] and 48.5 µM in test [3].

In test [1], `CCCn1cc(-c2ccnc(NC3CCCc4ccccc43)n2)c(C)n1` (stereo unspecified) had an IC50 of 21.4 µM.

With `Clc1cccc(C[C@@H]2NCCC[C@@H]2Nc2cccc(Cl)c2)c1`, the IC50 in test [1] is 5.94 µM; in test [2] it was 9.04 µM; in test [3] it was 6.67 µM.

`CC1c2cc(F)ccc2CCN1C(=O)c1[nH]c(=O)[nH]c(=O)c1N` (stereo unspecified) showed an IC50 in test [1] of 66.9 µM.

On to `COCCN(C)c1ccc(NCc2ccsc2)nc1`, for which, in test [1], the IC50 is above 100 µM.

Regarding `Cc1csc(C(Cc2ccsc2)NC(=O)CN(C)Cc2ccccn2)n1` (stereo unspecified), the IC50 in test [1] and in test [5] was above 100 µM each time.

In the case of `CCC(NC(=O)Nc1ccc(OC)c(C)c1)c1ccncc1` (stereo unspecified), the IC50 in test [1] was 49.9 µM.

In the case of `CC(C)c1ncc2c(n1)CN(Cc1noc(-c3ccccc3)n1)CC2`, the IC50 in test [1] is 36.9 µM; in test [5] it was above 100 µM.

In test [1], `CSc1ccc(CNC(c2ccccc2F)c2nccn2C)cc1` (stereo unspecified) had an IC50 of 16.4 µM.

Turning to `COc1cc(-c2cc(NC3CCCC3)nc3[nH]ccc23)nc(N)n1`, the IC50 in test [1] was 2.7 µM.

Turning to `Cc1cccc(CN2CCCC2c2cncc(Nc3nncs3)n2)c1` (stereo unspecified), in test [1], the IC50 is 17.1 µM.

Consider `O=S(=O)(Nc1cnc(N2CCCC2)nc1)c1ccc(OC(F)(F)F)cc1`, for which, in test [1], the IC50 was above 100 µM.

Compound `COc1cc(C2Nc3cc(Cl)ccc3C3=NCCN32)ccc1O` (stereo unspecified) gave an IC50 in test [1] above 100 µM.

For the compound `CCCNC(=O)NC(=O)CNC(C)(C)c1ccc2c(c1)OCCO2`, the IC50 in test [1] was 23.5 µM; in test [2], 13.3 µM; in test [3], 19 µM.

For the compound `Cc1cc(N2CCOCC2)ccc1NC(C)c1nc(C(C)(C)C)no1` (stereo unspecified), the IC50 in test [1] is above 100 µM.

Regarding `c1ccc(-c2nc(CN3CCCC(Cn4cncn4)C3)cs2)cc1` (stereo unspecified), in test [1], the IC50 is 54.6 µM.

As to `Cc1cnn(CC2CCCN2Cc2nc(C)c3ccccc3n2)c1` (stereo unspecified), the IC50 in test [1] is 34.9 µM.

For the compound `COc1ccc2c(c1)OCC(CNc1cc(N)nc(SC)n1)C2` (stereo unspecified), in test [1], the IC50 is 62.6 µM.

`O=C(Nc1nc2c(s1)CNCC2)NC1CCCC1` had an IC50 in test [1] above 100 µM.

Turning to `O=C(NCCc1cccc(F)c1)C1(n2cnnn2)CCCCC1`, the IC50 in test [1] is 11.1 µM; in test [2], 43.2 µM; in test [3], 46.9 µM.

`Cc1ccc(C(C)N(C)Cc2nc3c(cnn3C)c(=O)[nH]2)s1` (stereo unspecified): the IC50 in test [1] was above 100 µM.

In test [1], `O=C(NCCC(O)c1ccoc1)Nc1cccs1` (stereo unspecified) gave an IC50 above 100 µM.

Consider `CC(C)C1CCCN1CCCc1nc(-c2cccs2)no1` (stereo unspecified), for which the IC50 in test [1] was above 100 µM.

In test [1], `Cc1cc(-c2cnc(N3CCCCCC3)nc2-c2cccnc2C)on1` gave a pIC50 of 4.097 and an IC50 of 68.5 µM.

In test [1], `Cc1nc(-c2ccccc2)cc2nn(CC(N)=O)c(=O)n12` gave an IC50 above 100 µM.

`Nc1cc(-c2cccs2)nn(CC(=O)NCC2CCCCC2)c1=O` gave an IC50 in test [1] above 100 µM.

Consider `COc1cc(C(=O)Nc2nc(C)no2)cc(Cl)c1OC`, for which, in test [1], the pIC50 turned out to be 4.499 and the IC50 was 24.8 µM.

Turning to `CCNc1ncc(C(=O)NCc2ccc3nsnc3c2)cn1`, the IC50 in test [1] is above 100 µM.

In test [1], `CCOc1cccc(COC(=O)c2cscn2)n1` had an IC50 above 100 µM.

As to `Cc1cccc(CN2CCN(C(=O)c3cc(C4CC4)[nH]n3)CC2)c1`, the figures for the IC50 in test [1], in test [2] and in test [3] were 77.1 µM, 25 µM and 25.8 µM, respectively.

Consider `Cn1ccnc1C(NCc1ccc(Br)cc1)c1ccccc1` (stereo unspecified), for which, in test [1], the IC50 is 17.7 µM.

With `CC(C)N(C(=O)Cn1c(-c2ccco2)cc2cccnc21)C(C)C`, the IC50 in test [1] and in test [5] was above 100 µM each time.

In test [1], `CCC(CN1CCOCC1)n1cncc1-c1ccc2c(c1)CCN2CC` (stereo unspecified) had an IC50 of 98.5 µM.

`Cc1noc(NC(=O)c2cccc(Br)c2)n1` had a negative-log IC50 (pIC50) in test [1] of 4.54. For the same compound, the values for the IC50 in test [1], in test [2] and in test [3] were 16 µM, 41.8 µM and 46.3 µM, respectively.

Consider `Cc1ccsc1CN(c1nc(CCN)nc2ccccc12)C1CC1`, for which the IC50 in test [1] was 49.6 µM.

Source of the values: ChEMBL document CHEMBL3988442, “University of Dundee, Small-Polar-MMV Screening Library” (2021).
